ChEMBL document CHEMBL3994622, “Design and synthesis of new RAF kinase-inhibiting antiproliferative quinoline derivatives. Part 2: Diarylurea derivatives” (Eur J Med Chem, 2017)

Key:
SF-268 = test: Growth inhibition of human SF268 cells assessed as cell growth at 100 uM incubated for 48 hrs by sulforhodamine B assay relative to control; type: functional; conditions: SF-268, 48 h, read-out: Activity
MDA-MB-468 = test: Growth inhibition of human MDA-MB-468 cells assessed as cell growth at 0.3 uM incubated for 48 hrs by sulforhodamine B assay relative to control; type: functional; conditions: MDA-MB-468, 48 h, read-out: Activity
SK-MEL-5 = test: Growth inhibition of human SK-MEL-5 cells assessed as cell growth at 50 uM incubated for 48 hrs by sulforhodamine B assay relative to control; type: functional; conditions: SK-MEL-5, 48 h, read-out: Activity
Malme-3M = test: Growth inhibition of human MALME-3M cells assessed as cell growth at 0.005 uM incubated for 48 hrs by sulforhodamine B assay relative to control; type: functional; conditions: read-out: Activity
UACC-62 = test: Growth inhibition of human UACC62 cells assessed as cell growth at 50 uM incubated for 48 hrs by sulforhodamine B assay relative to control; type: functional; conditions: UACC-62, 48 h, read-out: Activity
RPMI-8226 = test: Growth inhibition of human RPMI8226 cells assessed as cell growth at 0.05 uM incubated for 48 hrs by sulforhodamine B assay relative to control; type: functional; conditions: RPMI-8226, 48 h, read-out: Activity
COLO 205 [1] = test: Growth inhibition of human COLO205 cells assessed as cell growth at 0.5 uM incubated for 48 hrs by sulforhodamine B assay relative to control; type: functional; conditions: COLO 205, 48 h, read-out: Activity
BT-549 = test: Growth inhibition of human BT549 cells assessed as cell growth at 0.005 uM incubated for 48 hrs by sulforhodamine B assay relative to control; type: functional; conditions: BT-549, 48 h, read-out: Activity
UACC-257 [2] = test: Growth inhibition of human UACC257 cells assessed as cell growth at 50 uM incubated for 48 hrs by sulforhodamine B assay relative to control; type: functional; conditions: UACC-257, 48 h, read-out: Activity
KM12 = test: Growth inhibition of human KM12 cells assessed as cell growth at 0.005 uM incubated for 48 hrs by sulforhodamine B assay relative to control; type: functional; conditions: KM12, 48 h, read-out: Activity
SK-OV-3 = test: Growth inhibition of human SKOV3 cells assessed as cell growth at 0.005 uM incubated for 48 hrs by sulforhodamine B assay relative to control; type: functional; conditions: SK-OV-3, 48 h, read-out: Activity
NCI-H522 = test: Growth inhibition of human NCI-H522 cells assessed as cell growth at 50 uM incubated for 48 hrs by sulforhodamine B assay relative to control; type: functional; conditions: NCI-H522, 48 h, read-out: Activity
Hs-578T [3] = test: Growth inhibition of human Hs 578T cells assessed as cell growth at 5 uM incubated for 48 hrs by sulforhodamine B assay relative to control; type: functional; conditions: read-out: Activity
COLO 205 [4] = test: Growth inhibition of human COLO205 cells assessed as cell growth at 0.05 uM incubated for 48 hrs by sulforhodamine B assay relative to control; type: functional; conditions: COLO 205, 48 h, read-out: Activity
MDA-MB-435 = test: Growth inhibition of human MDA-MB-435 cells assessed as cell growth at 5 uM incubated for 48 hrs by sulforhodamine B assay relative to control; type: functional; conditions: MDA-MB-435, 48 h, read-out: Activity
SN12C = test: Growth inhibition of human SN12C cells assessed as cell growth at 5 uM incubated for 48 hrs by sulforhodamine B assay relative to control; type: functional; conditions: read-out: Activity
TK-10 = test: Growth inhibition of human TK10 cells assessed as cell growth at 50 uM incubated for 48 hrs by sulforhodamine B assay relative to control; type: functional; conditions: TK-10, 48 h, read-out: Activity
CAKI-1 = test: Growth inhibition of human Caki1 cells assessed as cell growth at 0.5 uM incubated for 48 hrs by sulforhodamine B assay relative to control; type: functional; conditions: CAKI-1, 48 h, read-out: Activity
MOLT-4 = test: Growth inhibition of human MOLT4 cells assessed as cell growth at 0.005 uM incubated for 48 hrs by sulforhodamine B assay relative to control; type: functional; conditions: MOLT-4, 48 h, read-out: Activity
SNB-75 = test: Growth inhibition of human SNB75 cells assessed as cell growth at 50 uM incubated for 48 hrs by sulforhodamine B assay relative to control; type: functional; conditions: SNB-75, 48 h, read-out: Activity
RXF 393 = test: Growth inhibition of human RXF393 cells assessed as cell growth at 50 uM incubated for 48 hrs by sulforhodamine B assay relative to control; type: functional; conditions: RXF 393, 48 h, read-out: Activity
ACHN = test: Growth inhibition of human ACHN cells assessed as cell growth at 0.005 uM incubated for 48 hrs by sulforhodamine B assay relative to control; type: functional; conditions: read-out: Activity
M14 [5] = test: Growth inhibition of human M14 cells assessed as cell growth at 0.05 uM incubated for 48 hrs by sulforhodamine B assay relative to control; type: functional; conditions: M14, 48 h, read-out: Activity
NCI/ADR-RES = test: Growth inhibition of human NCI/ADR-RES cells assessed as cell growth at 5 uM incubated for 48 hrs by sulforhodamine B assay relative to control; type: functional; conditions: read-out: Activity
PC-3 = test: Growth inhibition of human PC3 cells assessed as cell growth at 5 uM incubated for 48 hrs by sulforhodamine B assay relative to control; type: functional; conditions: PC-3, 48 h, read-out: Activity
EKVX = test: Growth inhibition of human EKVX cells assessed as cell growth at 0.5 uM incubated for 48 hrs by sulforhodamine B assay relative to control; type: functional; conditions: read-out: Activity
M14 [6] = test: Growth inhibition of human M14 cells assessed as cell growth at 0.005 uM incubated for 48 hrs by sulforhodamine B assay relative to control; type: functional; conditions: M14, 48 h, read-out: Activity
SK-MEL-28 = test: Growth inhibition of human SK-MEL-28 cells assessed as cell growth at 0.005 uM incubated for 48 hrs by sulforhodamine B assay relative to control; type: functional; conditions: SK-MEL-28, 48 h, read-out: Activity
Hs-578T [7] = test: Growth inhibition of human Hs 578T cells assessed as cell growth at 50 uM incubated for 48 hrs by sulforhodamine B assay relative to control; type: functional; conditions: read-out: Activity
UACC-257 [8] = test: Growth inhibition of human UACC257 cells assessed as cell growth at 5 uM incubated for 48 hrs by sulforhodamine B assay relative to control; type: functional; conditions: UACC-257, 48 h, read-out: Activity
MCF7 = test: Growth inhibition of human MCF7 cells assessed as cell growth at 5 uM incubated for 48 hrs by sulforhodamine B assay relative to control; type: functional; conditions: MCF7, 48 h, read-out: Activity
T47D = test: Growth inhibition of human T47D cells assessed as cell growth at 50 uM incubated for 48 hrs by sulforhodamine B assay relative to control; type: functional; conditions: read-out: Activity
LOX IMVI = test: Growth inhibition of human LOXIMVI cells assessed as cell growth at 30 uM incubated for 48 hrs by sulforhodamine B assay relative to control; type: functional; conditions: read-out: Activity
[9] = target: Serine/threonine-protein kinase B-raf (Homo sapiens, UniProt P15056, V600E); test: Inhibition of human BRAF V600E mutant using MEK1 as substrate in presence of [33P]ATP by Hotspot assay
Serine/threonine-protein kinase B-raf, sequence (P15056 2-766 V600E limits assumed): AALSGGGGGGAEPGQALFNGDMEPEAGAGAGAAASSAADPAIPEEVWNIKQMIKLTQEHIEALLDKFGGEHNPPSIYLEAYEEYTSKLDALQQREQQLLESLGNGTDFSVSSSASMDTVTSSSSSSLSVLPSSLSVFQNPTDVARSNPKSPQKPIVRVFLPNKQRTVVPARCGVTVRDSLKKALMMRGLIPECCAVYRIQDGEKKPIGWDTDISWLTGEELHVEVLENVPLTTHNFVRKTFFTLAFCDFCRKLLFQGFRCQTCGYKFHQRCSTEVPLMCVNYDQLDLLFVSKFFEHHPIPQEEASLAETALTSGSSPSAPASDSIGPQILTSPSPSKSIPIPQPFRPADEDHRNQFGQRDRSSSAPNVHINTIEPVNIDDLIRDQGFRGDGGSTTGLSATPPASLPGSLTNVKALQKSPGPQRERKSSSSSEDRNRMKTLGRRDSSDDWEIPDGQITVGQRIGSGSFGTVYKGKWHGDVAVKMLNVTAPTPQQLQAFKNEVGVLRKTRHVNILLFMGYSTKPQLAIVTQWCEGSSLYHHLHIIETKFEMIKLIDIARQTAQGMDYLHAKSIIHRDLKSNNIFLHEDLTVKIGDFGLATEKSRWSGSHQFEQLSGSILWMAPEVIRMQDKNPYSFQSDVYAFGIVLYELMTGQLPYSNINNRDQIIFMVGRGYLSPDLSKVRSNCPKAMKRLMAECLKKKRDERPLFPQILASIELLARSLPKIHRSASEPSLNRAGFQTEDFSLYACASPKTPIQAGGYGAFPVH

COc1cc2cc(Oc3ccc(NC(=O)Nc4cc(C(F)(F)F)cc(C(F)(F)F)c4)cc3)c(C)nc2cc1OC
growth at 100 µM (SF-268): -71%

Cc1nc2cc(O)c(O)cc2cc1Oc1ccc(NC(=O)Nc2ccc(Cl)c(Cl)c2)cc1
growth at 0.3 µM (MDA-MB-468): 99%

COc1cc2cc(Oc3ccc(NC(=O)Nc4cccc(C(F)(F)F)c4)cc3)c(C)nc2cc1OC
growth at 50 µM (SK-MEL-5): -100% | growth at 0.005 µM (Malme-3M): 94% | growth at 50 µM (UACC-62): -44% | growth at 0.05 µM (RPMI-8226): 96% | growth at 0.5 µM (COLO 205 [1]): 102% | growth at 0.005 µM (BT-549): 96% | growth at 50 µM (UACC-257 [2]): -75% | growth at 0.005 µM (KM12): 90% | growth at 0.005 µM (SK-OV-3): 98% | growth at 50 µM (NCI-H522): -61% | growth at 5 µM (Hs-578T [3]): -8% | growth at 0.05 µM (COLO 205 [4]): 94% | growth at 5 µM (MDA-MB-435): 13% | growth at 5 µM (SN12C): 22% | growth at 50 µM (TK-10): -46% | growth at 0.5 µM (CAKI-1): 91% | growth at 0.005 µM (MOLT-4): 97% | growth at 50 µM (SNB-75): -46% | growth at 50 µM (RXF 393): -69% | growth at 0.005 µM (ACHN): 97% | growth at 0.05 µM (M14 [5]): 84% | growth at 5 µM (NCI/ADR-RES): 11% | growth at 5 µM (PC-3): 3% | growth at 0.5 µM (EKVX): 89% | growth at 0.005 µM (M14 [6]): 98% | growth at 0.005 µM (SK-MEL-28): 101% | growth at 50 µM (Hs-578T [7]): -41% | growth at 5 µM (UACC-257 [8]): -13% | growth at 5 µM (MCF7): 3% | growth at 50 µM (T47D): -49%

COc1cc2cc(Oc3ccc(NC(=O)Nc4ccc(Cl)c(C(F)(F)F)c4)cc3)c(C)nc2cc1OC
growth at 30 µM (LOX IMVI): -100% | IC50 [9]: 260 nM
